Ends that are not written are not given here.
Columns and labels:
HLA-A*0201 molecule = HLA-A*0201 molecule (Homo sapiens, UniProt P04439, D140Y/D185E/D98H/E176V/E277Q/G131W/G231S/I119V/I121R/I166T/I218V/L300P/L318F/N151K/N90K/P208A/P217A/Q86G/Q94H/R138H/R169H/T345S); assay: In vitro binding to HLA-A*0201
[1] = system: peptide pulsed HHD-EL4S3-Rob target cells; settings: Corbet et al., 2003; cited from earlier work

Compound	IC50 (HLA-A*0201 molecule) [µM]	immunogenicity of anchor-optimized epitope with cross-reaction to the natural epitope [1]
CC[C@H](C)[C@H](NC(=O)[C@H](CC(C)C)NC(=O)[C@H](CCC(N)=O)NC(=O)[C@H](CC(=O)O)NC(=O)[C@H](C)NC(=O)[C@H](CC(C)C)NC(=O)CN)C(=O)N[C@@H](Cc1c[nH]cn1)C(=O)N[C@@H](CC(C)C)C(=O)O [Vif 101 (9L)]	0.219	–
ALVEMGHHV [Vpu66(9V)^mod]	–	very strong immune response
DLADQLIHL [Vif 101 (1 D)]	1.95	–
ELADQLIHL [Vif101(1E)^var]	6.59	–
FLGKIWPV [Gag433(9V)^mod]	–	very strong immunogens
GLADQLIHI [Vif 101 (9 I)]	0.03	–
HLADQLIHQ [G1HL9Q]	1.16	–
SLADQLIHL [Vif 101 (1 S)]	0.043	–
